Measurements reported in ChEMBL document CHEMBL1134103.

Target: Peptidyl-prolyl cis-trans isomerase A (Homo sapiens) (UniProt P62937)
Assay: Permeation ratio of cell-free CyP binding to intracellular CyP binding
Type: cell-based

Sequence of Peptidyl-prolyl cis-trans isomerase A (Homo sapiens) (P62937 whole entry, looked up): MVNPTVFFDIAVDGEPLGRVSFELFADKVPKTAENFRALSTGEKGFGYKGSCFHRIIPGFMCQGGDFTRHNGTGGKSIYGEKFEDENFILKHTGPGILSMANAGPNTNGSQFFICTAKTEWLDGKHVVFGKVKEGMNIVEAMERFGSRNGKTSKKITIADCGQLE

Q: How did the Ratio turn out when CC[C@H]1C[C@H](C)[C@@]2(NC1=O)O[C@@H](C[C@H](O)[C@@H](C)CCCCCC(C)[C@@H]1CCCCC[C@H](O)[C@H](C)[C@@H](O)[C@@H](CCC(C)=O)C(=O)N[C@@H](C(C)C)C(=O)N[C@@H](Cc3ccccc3)C(=O)N3CCC[C@H](N3)C(=O)O1)[C@H](C)[C@H](O)[C@@H]2C (stereo partly drawn) was run?
A: The Ratio was 270.

Q: Which Ratio does the source give for CC[C@H]1C[C@H](C)[C@@]2(NC1=O)O[C@@H](C[C@H](O)[C@@H](C)CCCCCC(C)[C@@H]1CCCCC[C@H](O)[C@H](C)[C@@H](O)[C@@H](CCC(C)=O)C(=O)N[C@@H](C(C)C)C(=O)N[C@@H](Cc3cccc(O)c3)C(=O)N3CCC[C@H](N3)C(=O)O1)[C@H](C)[C@H](O)[C@@H]2C (stereo partly drawn) here?
A: The Ratio was 65.

Q: Which Ratio does the source give for CCCC[C@H]1C(=O)N[C@@H](C(C)C)C(=O)N[C@@H](Cc2cccc(O)c2)C(=O)N2CCC[C@H](N2)C(=O)O[C@H](/C(C)=C/C=C/CC[C@H](C)[C@@H](O)C[C@@H]2O[C@@]3(NC(=O)[C@@H](CC)C[C@@H]3C)[C@@H](C)[C@@H](O)[C@H]2C)C/C=C/C=C/[C@H](O)[C@H](C)[C@H]1O here?
A: The Ratio was 0.8.
